How the values were obtained:
Jily [1] = experiment: MTS proliferation assay; type: cell-based; conditions: 72 h read-out
Method: (§1) The assay is performed in 96 well tissue culture plates. The cells (range: 1.5*10^3-10^4) are seeded out in 80 μl complete medium 24 h prior to compound treatment. The test compounds are added in 20 μl complete medium containing max 5% DMSO. The final compound concentrations in the assays are in the range of 0.001 μM-10 μM. The assay plates are incubated for 72 h at culture conditions. The MTS reagent is prepared according to the manufacturer's protocol (Promega G1111). 20 μl MTS reagent are added to each well, the assay plates are quickly spun and incubated for another 3 h at culture conditions. Subsequently, the plates are shortly shaked and absorption measured with a microplate-reader at 492 nm. The scores A, B, C and D are explained at the end of the Table.

MRC5 [2] = experiment: MTS proliferation assay; type: cell-based; conditions: MRC5, 72 h read-out
Method: as §1

HeLa [3] = experiment: Hoechst 33342 nuclear staining; type: cell-based, human; conditions: 48 h read-out
Method: (§2) This assay is performed in 96 well tissue culture plates. Appropriate number of cells (adherent cells: 3-5*10^3, suspension cells: 8-10*10^3) are being seeded out in 80 μl complete medium. Adherent cells are incubated for 24 h for proper spreading out before addition of test compounds while suspension cells are immediately treated with test compounds after seeding out. The test compounds are added in 20 μl complete medium containing max 5% DMSO. The final compound concentrations in the assays are in the range of 0.001 μM-10 μM. […] The assay plates are then further incubated for 30 minutes and subsequently analyzed with a standard inverted fluorescence microscope.
(§3) The readout allows the determination of the fraction of apoptotic nuclei as well as other morphological criteria specific for apoptosis as a function of the treatment. The scores A, B, C and D are explained at the end of the Table.

Jurkat [4] = experiment: Hoechst 33342 nuclear staining; type: cell-based, human; conditions: 48 h read-out
Method: as §2, §3

PBL [5] = experiment: Hoechst 33342 nuclear staining; type: cell-based, human; conditions: 48 h read-out
Method: as §2, §3

Jily [6] = experiment: Hoechst 33342 nuclear staining; type: cell-based; conditions: 48 h read-out
Method: as §2, §3

MRC5 [7] = experiment: Hoechst 33342 nuclear staining; type: cell-based; conditions: MRC5, 48 h read-out
Method: as §2, §3

HeLa [8] = experiment: MTS proliferation assay; type: cell-based, human; conditions: 72 h read-out
Method: as §1

Jurkat [9] = experiment: MTS proliferation assay; type: cell-based, human; conditions: 72 h read-out
Method: as §1

HT1080 = experiment: MTS proliferation assay; type: cell-based, human; conditions: HT1080, 72 h read-out
Method: as §1

DOHH2 = experiment: Mitochondrial membrane potential (JC-1); type: cell-based; conditions: DOHH2, 48 h read-out
Method: as §2, with “20 μal” for “20 μl”, “DMSO.” for “DMSO. The final compound concentrations in the assays are in the range of 0.001 μM-10 μM.”, “fluorescence microscope by using the FITC and TRITC filters.” for “fluorescence microscope.”
(§4) The scores A, B, C and D are explained at the end of the Table.

HeLa [10] = experiment: Mitochondrial membrane potential (JC-1); type: cell-based, human; conditions: 48 h read-out
Method: as §2, with “20 μal” for “20 μl”, “DMSO.” for “DMSO. The final compound concentrations in the assays are in the range of 0.001 μM-10 μM.”, “fluorescence microscope by using the FITC and TRITC filters.” for “fluorescence microscope.”
as §4

Jurkat [11] = experiment: Mitochondrial membrane potential (JC-1); type: cell-based, human; conditions: 48 h read-out
Method: as §2, with “20 μal” for “20 μl”, “DMSO.” for “DMSO. The final compound concentrations in the assays are in the range of 0.001 μM-10 μM.”, “fluorescence microscope by using the FITC and TRITC filters.” for “fluorescence microscope.”
as §4

PBL [12] = experiment: Mitochondrial membrane potential (JC-1); type: cell-based, human; conditions: 48 h read-out
Method: as §2, with “20 μal” for “20 μl”, “DMSO.” for “DMSO. The final compound concentrations in the assays are in the range of 0.001 μM-10 μM.”, “fluorescence microscope by using the FITC and TRITC filters.” for “fluorescence microscope.”
as §4

MCF7 = experiment: Mitochondrial membrane potential (JC-1); type: cell-based, human; conditions: MCF7, 48 h read-out
Method: as §2, with “20 μal” for “20 μl”, “DMSO.” for “DMSO. The final compound concentrations in the assays are in the range of 0.001 μM-10 μM.”, “fluorescence microscope by using the FITC and TRITC filters.” for “fluorescence microscope.”
as §4

Structure (SMILES)	IC50 (Jily [1]) [nM]	IC50 (MRC5 [2]) [nM]	EC50 (HeLa [3]) [nM]	EC50 (Jurkat [4]) [nM]	EC50 (PBL [5]) [nM]	EC50 (Jily [6]) [nM]	EC50 (MRC5 [7]) [nM]	IC50 (HeLa [8]) [nM]	IC50 (Jurkat [9]) [nM]	IC50 (HT1080) [nM]	EC50 (DOHH2) [nM]	EC50 (HeLa [10]) [nM]	EC50 (Jurkat [11]) [nM]	EC50 (PBL [12]) [nM]	EC50 (MCF7) [nM]
COc1ccc(Nc2cncc(-c3cccc(NC(C)=O)c3)c2)cc1 [Example 8]	100 to 1000	> 1000	100 to 1000	100 to 1000	> 1000	100 to 1000	100 to 1000	100 to 1000	100 to 1000	100 to 1000	100 to 1000	100 to 1000	100 to 1000	> 1000	> 1000
COc1ccc(Nc2cncc(-c3cccc(NC(=O)c4ccc(OC)cc4)c3)c2)cc1 [Example 9]	100 to 1000	> 1000	–	–	–	–	–	100 to 1000	100 to 1000	100 to 1000	10 to 100	100 to 1000	10 to 100	> 1000	100 to 1000
CCOc1ccccc1C(=O)Nc1cccc(-c2cncc(Nc3ccc(OC)cc3)c2)c1 [Example 10]	10 to 100	100 to 1000	10 to 100	10 to 100	> 1000	100 to 1000	> 1000	100 to 1000	10 to 100	10 to 100	100 to 1000	100 to 1000	10 to 100	> 1000	100 to 1000
COc1ccc(Nc2cncc(-c3cccc(NC(=O)c4cnccn4)c3)c2)cc1 [Example 12]	10 to 100	100 to 1000	10 to 100	10 to 100	> 1000	10 to 100	100 to 1000	10 to 100	< 10	10 to 100	10 to 100	100 to 1000	10 to 100	> 1000	100 to 1000
COc1ccc(Nc2cncc(-c3cccc(NC(=O)c4cccnc4)c3)c2)cc1 [Example 13]	10 to 100	100 to 1000	100 to 1000	100 to 1000	> 1000	100 to 1000	> 1000	100 to 1000	10 to 100	100 to 1000	100 to 1000	100 to 1000	10 to 100	> 1000	> 1000
COc1ccc(Nc2cncc(-c3cccc(NC(=O)c4ccco4)c3)c2)cc1 [Example 14]	10 to 100	100 to 1000	100 to 1000	10 to 100	> 1000	10 to 100	100 to 1000	100 to 1000	10 to 100	100 to 1000	10 to 100	100 to 1000	10 to 100	> 1000	> 1000
COc1ccc(Nc2cncc(-c3cccc(NC(=O)Cc4ccccc4)c3)c2)cc1 [Example 15]	100 to 1000	100 to 1000	100 to 1000	100 to 1000	> 1000	100 to 1000	> 1000	100 to 1000	100 to 1000	100 to 1000	100 to 1000	100 to 1000	10 to 100	> 1000	> 1000
COc1ccc(Nc2cncc(-c3cccc(NC(=O)c4ccccn4)c3)c2)cc1 [Example 17]	10 to 100	10 to 100	10 to 100	100 to 1000	> 1000	10 to 100	> 1000	10 to 100	< 10	10 to 100	10 to 100	10 to 100	10 to 100	> 1000	> 1000
CCC(=O)Nc1cccc(-c2cncc(Nc3ccc(OC)cc3)c2)c1 [Example 21]	100 to 1000	100 to 1000	100 to 1000	100 to 1000	> 1000	100 to 1000	> 1000	100 to 1000	10 to 100	100 to 1000	100 to 1000	100 to 1000	100 to 1000	> 1000	> 1000
COc1ccc(Nc2cncc(-c3cccc(NC(=O)c4cccs4)c3)c2)cc1 [Example 22]	10 to 100	100 to 1000	10 to 100	10 to 100	> 1000	10 to 100	100 to 1000	10 to 100	10 to 100	10 to 100	10 to 100	10 to 100	10 to 100	> 1000	100 to 1000
COc1ccc(Nc2cncc(-c3cccc(NS(=O)(=O)c4ccccc4)c3)c2)cc1 [Example 23]	100 to 1000	100 to 1000	100 to 1000	100 to 1000	> 1000	100 to 1000	> 1000	100 to 1000	100 to 1000	100 to 1000	100 to 1000	100 to 1000	100 to 1000	> 1000	100 to 1000
COc1ccc(Nc2cncc(-c3cccc(NC(=O)c4cccc(OC)c4)c3)c2)cc1 [Example 25]	100 to 1000	> 1000	> 1000	100 to 1000	> 1000	> 1000	> 1000	> 1000	100 to 1000	> 1000	> 1000	> 1000	100 to 1000	> 1000	> 1000
COc1ccc(Nc2cncc(-c3cccc(NC(=O)C(C)C)c3)c2)cc1 [Example 26]	10 to 100	100 to 1000	100 to 1000	10 to 100	> 1000	100 to 1000	> 1000	100 to 1000	10 to 100	100 to 1000	100 to 1000	> 1000	100 to 1000	> 1000	> 1000
O=C(Nc1cccc(-c2cncc(Nc3ccc(OCc4ccccc4)cc3)c2)c1)c1ccccc1 [Example 27]	> 1000	> 1000	> 1000	> 1000	> 1000	> 1000	> 1000	> 1000	> 1000	> 1000	> 1000	> 1000	> 1000	> 1000	> 1000
COc1ccc(Nc2cncc(-c3cccc(NC(=O)c4ccccc4)c3)c2)cc1OC [Example 29]	100 to 1000	> 1000	100 to 1000	100 to 1000	> 1000	100 to 1000	> 1000	> 1000	100 to 1000	> 1000	> 1000	> 1000	100 to 1000	> 1000	> 1000
COc1ccc(Nc2cncc(-c3cccc(NC(=O)c4ccccc4)c3)c2)c(OC)c1 [Example 30]	100 to 1000	> 1000	> 1000	100 to 1000	> 1000	100 to 1000	> 1000	> 1000	100 to 1000	> 1000	> 1000	> 1000	> 1000	> 1000	> 1000
COCC(=O)Nc1cccc(-c2cncc(Nc3ccc(OC)cc3)c2)c1 [Example 41]	–	–	100 to 1000	100 to 1000	100 to 1000	100 to 1000	> 1000	–	–	–	100 to 1000	100 to 1000	100 to 1000	100 to 1000	100 to 1000
